Measured values: PubChem BioAssay (NCI)
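Briefly, cells in 96-well plates were exposed to five compound concentrations for 48 h, and endpoints were estimated by linear interpolation. Abbreviation: GI50, concentration required for 50% inhibition of growth. TGI denotes the concentration required for complete inhibition of growth.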

Assays:
Assay in all cases: growth of human tumour cells (NCI), 48 h
[1] = tested on: HL-60(TB) leukemia
[2] = tested on: NCI-H460 lung
[3] = tested on: K-562 leukemia
[4] = tested on: OVCAR-5 ovarian
[5] = tested on: UO-31 renal
[6] = tested on: CAKI-1 renal
[7] = tested on: NCI-H23 lung
[8] = tested on: HCC-2998 colon
[9] = tested on: UACC-62 melanoma
[10] = tested on: MALME-3M melanoma

| SMILES | TGI [1] | TGI [2] | TGI [3] | TGI [4] | TGI [5] | TGI [6] | TGI [7] | TGI [8] | GI50 [9] | TGI [9] | GI50 [1] | GI50 [2] | GI50 [3] | GI50 [10] | TGI [10] | GI50 [4] | GI50 [5] | GI50 [6] | GI50 [7] | GI50 [8] |
| --- | --- | --- | --- | --- | --- | --- | --- | --- | --- | --- | --- | --- | --- | --- | --- | --- | --- | --- | --- | --- |
| CCOP(=O)(OCC)C(Cc1c[nH]c2ccccc12)C(=O)O (stereo not given) | > 100 µM | > 100 µM | > 100 µM | > 100 µM | > 100 µM | > 100 µM | > 100 µM | > 100 µM |  |  |  |  |  |  |  |  |  |  |  |  |
| Fc1ccc(C2CC(c3cccc(Nc4ccncc4)c3)=NN2c2ccccc2)cc1 (stereo not given) | 4.49 µM | 3.19 µM | 6.86 µM | 5.27 µM | 2.86 µM | 3.02 µM | 3.33 µM | 3 µM | 1.76 µM | 3.24 µM | 2.08 µM | 1.76 µM | 2.42 µM | 1.6 µM | 3.16 µM | 2.18 µM | 1.45 µM | 1.6 µM | 1.75 µM | 1.63 µM |
| CC(O)C1(O)C(O)CC(OC2c3cc4c(c(O)c3[C@@H]3C[C@@]2(C)OC32C=c3cc[nH]c3=N2)C(=O)c2cccc(O)c2C4=O)OC1C (stereo not given in full) | 3.07 µM | 4.03 µM | 4.78 µM | 9.49 µM | 8.44 µM | 5.51 µM | 3.81 µM | 2.84 µM |  | 3.18 µM |  |  |  |  | 2.15 µM |  |  |  |  |  |
| CC(C)=NC(C(=O)O)C(C)(C)S (stereo not given) | > 100 µM | > 100 µM | > 100 µM | > 100 µM | > 100 µM | > 100 µM | > 100 µM |  |  | > 100 µM |  |  |  |  | > 100 µM |  |  |  |  |  |
| Cc1ccc(S(=O)(=O)NCCCSCCN)cc1 | > 100 µM | > 100 µM | > 100 µM |  | > 100 µM |  | > 100 µM | > 100 µM |  |  |  |  |  |  |  |  |  |  |  |  |
| C[n+]1c(-c2ccc(/C=N\Nc3ccnc(N/N=C/c4ccc(-c5cn6ccsc6[n+]5C)cc4)n3)cc2)cn2ccsc21 | 57.4 µM | > 100 µM | > 100 µM | > 100 µM | > 100 µM | 80.8 µM | > 100 µM | 77.2 µM |  | 76.4 µM |  |  |  |  | 85.4 µM |  |  |  |  |  |
| Nc1nc(N)c(N=Nc2ccccc2)c(=O)[nH]1 | > 100 µM | > 100 µM | > 100 µM | > 100 µM | > 100 µM | > 100 µM | 93 µM | > 100 µM |  | 69.7 µM |  |  |  |  | 69.6 µM |  |  |  |  |  |
| OCC1NC(CO)C(O)C1O (stereo not given) | > 100 µM | > 100 µM | > 100 µM | > 100 µM | > 100 µM | > 100 µM | > 100 µM | > 100 µM |  | > 100 µM |  |  |  |  | > 100 µM |  |  |  |  |  |
| Nc1ccc(C2(c3ccc(N)cc3)C3CC4CC(C3)CC2C4)cc1 | 46.6 µM |  | 47.4 µM | 32.7 µM | 33.9 µM | 31.9 µM | 28.7 µM | 41 µM |  | 30.6 µM |  |  |  |  |  |  |  |  |  |  |
| CC(=O)OC/C=C\Cn1ncc(=O)[nH]c1=O | 30.1 µM | 48.7 µM | 54.9 µM | 32.3 µM | 37.5 µM |  | 28.9 µM | 35 µM |  |  |  |  |  |  | 31.5 µM |  |  |  |  |  |
| O=C(N[C@H](CO)[C@H](O)c1ccc([N+](=O)[O-])cc1)C(Cl)Cl | > 100 µM | > 100 µM | > 100 µM | > 100 µM | > 100 µM | > 100 µM | > 100 µM | > 100 µM |  | > 100 µM |  |  |  |  | > 100 µM |  |  |  |  |  |
| C=C(CN(C)C)C(=O)c1ccccc1 | > 20.8 µM | 37.5 µM | 14.3 µM | 30.4 µM | 19.2 µM | 16.8 µM | 45 µM | 32.7 µM |  | 30.1 µM |  |  |  |  | 11.1 µM |  |  |  |  |  |
| COc1ccc(/C=C/c2cc(O)cc(OC3OC(CO)C(O)C(O)C3O)c2)cc1O (stereo not given) | > 100 µM | > 100 µM | > 100 µM | > 100 µM | > 100 µM | > 100 µM |  | > 100 µM |  | > 100 µM |  |  |  |  | > 100 µM |  |  |  |  |  |
| COc1ncnc2c(Cl)c(C(O)c3ccccc3)c(Cl)cc12 (stereo not given) | > 100 µM | > 100 µM | 69.3 µM | > 100 µM | > 100 µM | > 100 µM | > 100 µM |  |  | 52.1 µM |  |  |  |  | 83 µM |  |  |  |  |  |
| COc1ccc(CCn2ccc(C)n2)c(OC)c1 |  | > 100 µM | > 100 µM | > 100 µM | > 100 µM | > 100 µM | > 100 µM |  |  | > 100 µM |  |  |  |  | > 100 µM |  |  |  |  |  |
| O=S1(=O)C[C@H](NCc2ccccc2)[C@H](NCc2ccccc2)C1 |  | > 100 µM | > 100 µM | > 100 µM | > 100 µM | > 100 µM | > 100 µM | > 100 µM |  | > 100 µM |  |  |  |  | > 100 µM |  |  |  |  |  |
| CC(C)N(CCNc1nc(C(Cl)(Cl)Cl)nc2cc(Cl)ccc12)C(C)C | 3.6 µM | 2.6 µM |  | 2.48 µM |  | 3.17 µM | 3.47 µM | 2.86 µM | 1.72 µM | 3.22 µM | 1.52 µM | 1.13 µM |  | 1.83 µM | 3.98 µM | 1.16 µM |  | 1.6 µM | 1.61 µM | 1.34 µM |
